Assay results taken from patent US20170066759A1, “AROMATIC 5-MEMBERED HETEROCYCLIC DERIVATIVE HAVING TRPV4-INHIBITING ACTIVITY” (Shionogi & Co., Ltd., priority 2012, published 2017).

Target: T1, human TRPV4 (hTRPV4/CHO cells) (Homo sapiens, UniProt Q9HBA0)
T1 construct: expressed in transfected cells; host or cells: CHO-K1
Assay: Test Example 1: TRPV4 inhibitory activity (IC50 value), 4α-PDD stimulation, Fluo4 calcium fluorescence (FLIPR TETRA)
Format: cell-based
Details: Test Example 1, 4α-PDD stimulation, read-out: Test 1 IC50

T1 sequence (Q9HBA0 whole entry): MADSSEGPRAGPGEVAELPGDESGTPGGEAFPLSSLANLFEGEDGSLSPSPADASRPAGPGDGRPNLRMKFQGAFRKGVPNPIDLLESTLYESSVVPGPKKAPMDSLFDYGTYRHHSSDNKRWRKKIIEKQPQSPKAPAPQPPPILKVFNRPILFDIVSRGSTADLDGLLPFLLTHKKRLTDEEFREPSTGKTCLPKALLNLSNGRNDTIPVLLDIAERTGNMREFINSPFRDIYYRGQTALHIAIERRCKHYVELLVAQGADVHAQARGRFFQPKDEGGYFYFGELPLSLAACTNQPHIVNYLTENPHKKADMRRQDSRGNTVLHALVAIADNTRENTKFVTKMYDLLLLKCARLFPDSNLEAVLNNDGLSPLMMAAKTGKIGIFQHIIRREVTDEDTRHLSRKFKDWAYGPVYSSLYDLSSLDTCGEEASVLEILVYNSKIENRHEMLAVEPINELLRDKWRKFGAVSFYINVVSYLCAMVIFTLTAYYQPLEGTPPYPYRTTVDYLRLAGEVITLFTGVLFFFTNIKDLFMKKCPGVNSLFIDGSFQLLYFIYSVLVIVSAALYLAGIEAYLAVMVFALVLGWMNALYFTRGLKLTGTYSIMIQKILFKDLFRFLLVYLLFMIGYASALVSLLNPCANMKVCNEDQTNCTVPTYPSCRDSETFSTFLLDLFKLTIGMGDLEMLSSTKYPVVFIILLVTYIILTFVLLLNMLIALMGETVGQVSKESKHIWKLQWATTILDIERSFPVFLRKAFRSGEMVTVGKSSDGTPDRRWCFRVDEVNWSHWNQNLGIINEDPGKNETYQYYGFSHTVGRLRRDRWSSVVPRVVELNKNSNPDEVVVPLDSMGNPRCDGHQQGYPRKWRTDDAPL

Compound | IC50 [nM]
CN(Cc1nc(CO)sc1-c1csc(NC(=O)Cc2ccc(S(=O)(=O)C(F)(F)F)cc2)n1)C(=O)CO [Compound I-436] | 100 to 1000
NC(=O)OCC(=O)NCc1nc(CO)sc1-c1csc(NC(=O)Cc2ccc(S(=O)(=O)C(F)(F)F)cc2)n1 [Compound I-440] | 100 to 1000
CNC(=N)c1nc(C)c(-c2csc(NC(=O)Cc3ccc(S(=O)(=O)C(F)(F)F)cc3)n2)s1 [Compound I-441] | 100 to 1000
Cc1nc(CO)sc1-c1csc(NC(=O)NCc2ccc(Cl)cc2)n1 [Compound I-442] | 100 to 1000
COCCOc1nc(C)c(-c2csc(NC(=O)Cc3ccc(S(=O)(=O)C(F)(F)F)cc3)n2)s1 [Compound I-445] | 1000 to 8000
Cc1nc(OCCOCc2ccccc2)sc1-c1csc(NC(=O)Cc2ccc(S(=O)(=O)C(F)(F)F)cc2)n1 [Compound I-446] | 1000 to 8000
Cc1[nH]c(=O)sc1-c1csc(NC(=O)Cc2ccc(S(=O)(=O)C(F)(F)F)cc2)n1 [Compound I-451] | 100 to 1000
Cc1nc(CO)sc1-c1csc(NC(=O)CC2CCN(S(=O)(=O)CCC(F)(F)F)CC2)n1 [Compound I-452] | 1000 to 8000
Cc1nc(CO)sc1-c1csc(NC(=O)CC2CCN(S(=O)(=O)C(F)(F)F)CC2)n1 [Compound I-453] | 100 to 1000
COCc1nc(C)c(-c2csc(NC(=O)Cc3ccc(S(=O)(=O)C(F)(F)F)cc3)n2)s1 [Compound I-459] | 100 to 1000
Cc1nc(COCC(F)(F)F)sc1-c1csc(NC(=O)Cc2ccc(S(=O)(=O)C(F)(F)F)cc2)n1 [Compound I-460] | 1000 to 8000
Cc1nc(OCCO)sc1-c1csc(NC(=O)Cc2ccc(S(=O)(=O)C(F)(F)F)cc2)n1 [Compound I-461] | 100 to 1000
Cc1nc(CO)sc1-c1csc(NC(=O)/C=C/c2ccccc2)n1 [Compound I-462] | 100 to 1000
O=C(Cc1ccc(S(=O)(=O)C(F)(F)F)cc1)Nc1nc(-c2sc(CO)nc2CN2CCCC2=O)cs1 [Compound I-463] | 100 to 1000
Cc1nc(CO)sc1-c1csc(NC(=O)C2C[C@H](C(F)(F)F)CN2C(=O)C(F)(F)F)n1 (stereo partly drawn) [Compound I-464] | 1000 to 8000
Cc1nc(CO)sc1-c1csc(NC(=O)C2C[C@H](C(F)(F)F)CN2C(=O)C(F)(F)F)n1 (stereo partly drawn) [Compound I-465] | 100 to 1000

Compound | IC50 [nM]
Cc1nc(CO)sc1-c1csc(NC(=O)/C=C/c2ccc(Cl)cc2)n1 [Compound I-466] | 100 to 1000
Cc1nc(CO)sc1-c1csc(NC(=O)C2C[C@H](C(F)(F)F)CN2C(=O)OCC(F)(F)F)n1 (stereo partly drawn) [Compound I-475] | 100 to 1000
Cc1nc(C)c(-c2csc(NC(=O)Cc3ccc(S(=O)(=O)C(F)(F)F)cc3)n2)[nH]1 [Compound I-477] | 1000 to 8000
CC(=O)Nc1nc(-c2sc(C)nc2C)cs1 [Compound I-480] | 1000 to 8000
O=C(Cc1ccc(S(=O)(=O)C(F)(F)F)cc1)Nc1nc(-c2sc(CO)nc2CN2CCOC2=O)cs1 [Compound I-483] | 100 to 1000
Cc1nc(CS(C)(=O)=O)c(-c2csc(NC(=O)Cc3ccc(S(=O)(=O)C(F)(F)F)cc3)n2)s1 [Compound I-485] | 100 to 1000
Cc1nc(CS(=O)(=O)C(F)(F)F)c(-c2csc(NC(=O)Cc3ccc(S(=O)(=O)C(F)(F)F)cc3)n2)s1 [Compound I-486] | 100 to 1000
Cc1nc(CN2NCCC2=O)c(-c2csc(NC(=O)Cc3ccc(S(=O)(=O)C(F)(F)F)cc3)n2)s1 [Compound I-487] | 100 to 1000
Cc1nc(C)c(-c2csc(NC(=O)CC3CN(Cc4ccc(C(F)(F)F)cc4)C3)n2)s1 [Compound I-491] | 1000 to 8000
Cc1nc(C)c(-c2csc(NC(=O)CC3CN(c4ccc(C(F)(F)F)cn4)C3)n2)s1 [Compound I-493] | 100 to 1000
Cc1nc(C)c(-c2csc(NC(=O)CCC(=O)N[C@H](c3ccccc3)C(F)(F)F)n2)s1 [Compound I-494] | 100 to 1000
Cc1nc(C)c(-c2csc(NC(=O)[C@H]3CC[C@@H](C(=O)N[C@H](c4ccccc4)C(F)(F)F)CC3)n2)s1 [Compound I-495] | 100 to 1000
COC(=O)c1cccc(CC(=O)Nc2nc(-c3sc(C)nc3C)cs2)n1 [Compound I-509] | 100 to 1000
Cc1nc(C)c(-c2csc(NC(=O)Cc3cc(O)cc(C(=O)N[C@H](c4ccccc4)C(F)(F)F)c3)n2)s1 [Compound I-511] | 1000 to 8000
Cc1nc(C)c(-c2csc(NC(=O)Cc3cc(OCCN(C)C)cc(C(=O)N[C@H](c4ccccc4)C(F)(F)F)c3)n2)s1 [Compound I-514] | 1000 to 8000
Cc1nc(C)c(-c2csc(NC(=O)Cc3cc(OCCO)cc(C(=O)N[C@H](c4ccccc4)C(F)(F)F)c3)n2)s1 [Compound I-515] | 100 to 1000

Other lines, results leading:

IC50 [nM] | Compound
< 100 | Cc1nc(CCO)sc1-c1csc(NC(=O)Cc2ccc(S(=O)(=O)C(F)(F)F)cc2)n1 [Compound I-437]
< 100 | CCOCC(=O)NCc1nc(CO)sc1-c1csc(NC(=O)Cc2ccc(S(=O)(=O)C(F)(F)F)cc2)n1 [Compound I-438]
< 100 | O=C(Cc1ccc(S(=O)(=O)C(F)(F)F)cc1)Nc1nc(-c2sc(CO)nc2CNC(=O)C2(C(F)(F)F)CC2)cs1 [Compound I-439]
< 100 | Cc1nc(C)c(-c2csc(NC(=O)Cc3cccc(I)c3)n2)s1 [Compound I-443]
< 100 | COc1nc(C)c(-c2csc(NC(=O)Cc3ccc(S(=O)(=O)C(F)(F)F)cc3)n2)s1 [Compound I-444]
< 100 | Cc1nc(CO)sc1-c1csc(NC(=O)Nc2ccc(C(F)(F)F)nc2)n1 [Compound I-447]
< 100 | Cc1nc(CO)sc1-c1csc(NC(=O)C2C[C@H](C(F)(F)F)CN2C(=O)OC(C)(C)C)n1 (stereo partly drawn) [Compound I-448]
< 100 | Cc1nc(CO)sc1-c1csc(NC(=O)CC2CCN(c3ncc(C(F)(F)F)cn3)CC2)n1 [Compound I-449]
< 100 | Cc1nc(CO)sc1-c1csc(NC(=O)C2CC3(CCC3)C2)n1 [Compound I-450]
< 100 | Cc1nc([C@H](C)O)sc1-c1csc(NC(=O)Cc2ccc(S(=O)(=O)C(F)(F)F)cc2)n1 [Compound I-454]
< 100 | Cc1nc([C@@H](C)O)sc1-c1csc(NC(=O)Cc2ccc(S(=O)(=O)C(F)(F)F)cc2)n1 [Compound I-455]
< 100 | Cc1nc(CO)c(-c2csc(NC(=O)Cc3ccc(S(=O)(=O)C(F)(F)F)cc3)n2)s1 [Compound I-456]
< 100 | Cc1nc(CO)sc1-c1csc(NC(=O)CC2CC3(CCC3)C2)n1 [Compound I-457]
< 100 | Cc1nc(CO)sc1-c1csc(NC(=O)CCc2ccc(Cl)cc2)n1 [Compound I-458]
< 100 | Cc1nc(COC(N)=O)c(-c2csc(NC(=O)Cc3ccc(S(=O)(=O)C(F)(F)F)cc3)n2)s1 [Compound I-468]
< 100 | Cc1nc(C)c(-c2csc(NC(=O)Cc3cccc(C(=O)Nc4ccccc4)c3)n2)s1 [Compound I-469]
< 100 | Cc1nc(C)c(-c2csc(NC(=O)C3CC4(C3)CC(F)(F)C4)n2)s1 [Compound I-470]
< 100 | CC(=O)NCc1nc(C)sc1-c1csc(NC(=O)Cc2ccc(S(=O)(=O)C(F)(F)F)cc2)n1 [Compound I-471]
< 100 | Cc1nc(C(C)O)sc1-c1csc(NC(=O)[C@@H]2C[C@@H](c3ccccc3)CN2C(=O)C(F)(F)F)n1 (stereo partly drawn) [Compound I-476]
< 100 | Cc1nc(CCl)c(-c2csc(NC(=O)Cc3ccc(S(=O)(=O)C(F)(F)F)cc3)n2)s1 [Compound I-484]

IC50 [nM] | Compound
< 100 | COC(=O)c1cccc(CC(=O)Nc2nc(-c3sc(C)nc3C)cs2)c1 [Compound I-488]
< 100 | Cc1nc(C)c(-c2csc(NC(=O)Cc3cccc(C(=O)N[C@H](c4ccccc4)C(F)(F)F)c3)n2)s1 [Compound I-489]
< 100 | Cc1nc(C)c(-c2csc(NC(=O)Cc3cccc(C(=O)N[C@@H](c4ccccc4)C(F)(F)F)c3)n2)s1 [Compound I-490]
< 100 | Cc1nc(C)c(-c2csc(NC(=O)CC3CN(c4ccc(C(F)(F)F)cc4)C3)n2)s1 [Compound I-492]
< 100 | Cc1nc(C)c(-c2csc(NC(=O)C3(C)CN(c4ccc(C(F)(F)F)cc4)C3)n2)s1 [Compound I-496]
< 100 | Cc1nc(C)c(-c2csc(NC(=O)C3CN(c4ccc(C(F)(F)F)cc4)C3)n2)s1 [Compound I-497]
< 100 | Cc1nc(C)c(-c2csc(NC(=O)Cc3cccc(S(=O)(=O)Nc4ccc(C(F)(F)F)cc4)c3)n2)s1 [Compound I-498]
< 100 | Cc1nc(C)c(-c2csc(NC(=O)Cc3cccc(S(=O)(=O)N[C@H](c4ccccc4)C(F)(F)F)c3)n2)s1 [Compound I-499]
< 100 | Cc1nc(C)c(-c2csc(NC(=O)Cc3cccc(S(=O)(=O)Nc4ccccc4F)c3)n2)s1 [Compound I-501]
< 100 | Cc1nc(C)c(-c2csc(NC(=O)Cc3cccc(S(=O)(=O)NCC(F)(F)F)c3)n2)s1 [Compound I-502]
< 100 | Cc1nc(C)c(-c2csc(NC(=O)C3CN(S(=O)(=O)c4ccc(Cl)cc4Cl)C3)n2)s1 [Compound I-503]
< 100 | COc1cc(CC(=O)Nc2nc(-c3sc(C)nc3C)cs2)cc(C(=O)NC(c2ccccc2)C(F)(F)F)c1 (stereo not drawn) [Compound I-504]
< 100 | Cc1nc(C)c(-c2csc(NC(=O)Cc3cccc(C(=O)Nc4ccccc4F)n3)n2)s1 [Compound I-505]
< 100 | Cc1nc(C)c(-c2csc(NC(=O)Cc3cccc(C(=O)NC(c4ccccc4)C(F)(F)F)n3)n2)s1 (stereo not drawn) [Compound I-506]
< 100 | Cc1nc(C)c(-c2csc(NC(=O)Cc3cccc(C(=O)NC(C(C)(C)C)C(F)(F)F)n3)n2)s1 (stereo not drawn) [Compound I-507]
< 100 | Cc1nc(C)c(-c2csc(NC(=O)Cc3cccc(C(=O)Nc4ccc(C(F)(F)F)cc4)n3)n2)s1 [Compound I-508]
< 100 | Cc1nc(C)c(-c2csc(NC(=O)Cc3cc(Br)cc(C(=O)N[C@H](c4ccccc4)C(F)(F)F)c3)n2)s1 [Compound I-510]
< 100 | COCCOc1cc(CC(=O)Nc2nc(-c3sc(C)nc3C)cs2)cc(C(=O)N[C@H](c2ccccc2)C(F)(F)F)c1 [Compound I-513]
< 100 | Cc1nc(C)c(-c2csc(NC(=O)Cc3cc(C#N)cc(C(=O)N[C@H](c4ccccc4)C(F)(F)F)c3)n2)s1 [Compound I-516]
< 100 | Cc1nc(C)c(-c2csc(NC(=O)Cc3cc(C(=O)N[C@H](c4ccccc4)C(F)(F)F)cc([N+](=O)[O-])c3)n2)s1 [Compound I-517]
